Laboratory results: PMC11049977, “Antenna-Biased Odorant Receptor PstrOR17 Mediates Attraction of Phyllotreta striolata to (S)-Cis-Verbenol and (−)-Verbenone” (International Journal of Molecular Sciences, 2024)

Molecular target: T1, PstrOR17 (Phyllotreta striolata, UniProt A0A9N9TEW2)
T1 construct: gene PHYEVI_LOCUS1381; full-length ORF (1182 bp, 393 residues) from antennal cDNA in pUAST.attb; expressed in Drosophila melanogaster ab3A empty neurons under DmelOR22-Gal4; endogenous fly Orco not mentioned for the assay; with Odorant receptor coreceptor (Drosophila melanogaster, endogenous in the ab3A neuron)
T1 sequence (A0A9N9TEW2 1-393): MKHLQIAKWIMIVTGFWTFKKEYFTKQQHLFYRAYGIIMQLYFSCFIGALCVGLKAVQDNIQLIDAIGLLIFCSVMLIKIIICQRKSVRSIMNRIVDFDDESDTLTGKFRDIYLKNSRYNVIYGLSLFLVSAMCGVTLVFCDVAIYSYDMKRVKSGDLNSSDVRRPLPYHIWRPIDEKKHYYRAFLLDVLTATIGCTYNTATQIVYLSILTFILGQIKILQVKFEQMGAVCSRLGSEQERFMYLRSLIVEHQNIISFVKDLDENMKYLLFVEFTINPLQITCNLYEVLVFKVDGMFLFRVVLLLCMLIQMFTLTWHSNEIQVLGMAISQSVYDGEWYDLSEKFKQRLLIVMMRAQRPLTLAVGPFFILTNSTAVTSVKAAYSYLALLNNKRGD
T1 sequence (Q9VNB5 1-486 partner): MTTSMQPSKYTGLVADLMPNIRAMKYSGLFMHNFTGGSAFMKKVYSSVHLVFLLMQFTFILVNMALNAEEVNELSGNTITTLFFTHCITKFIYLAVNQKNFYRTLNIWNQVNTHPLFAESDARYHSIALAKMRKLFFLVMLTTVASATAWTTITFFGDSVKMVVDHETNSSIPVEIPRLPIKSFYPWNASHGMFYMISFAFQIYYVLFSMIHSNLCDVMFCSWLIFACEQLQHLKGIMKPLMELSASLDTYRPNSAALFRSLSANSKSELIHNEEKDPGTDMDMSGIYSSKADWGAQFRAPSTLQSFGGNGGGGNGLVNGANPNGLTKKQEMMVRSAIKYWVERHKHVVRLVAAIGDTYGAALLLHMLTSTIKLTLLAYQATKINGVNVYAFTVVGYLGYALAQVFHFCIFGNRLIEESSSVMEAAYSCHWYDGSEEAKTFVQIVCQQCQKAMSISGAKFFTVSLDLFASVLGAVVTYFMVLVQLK
Assay: single sensillum recording, Drosophila empty neuron (ab3A)
Type: cell-based
Conditions: agonist, odour cartridge 10 μL on filter strip

[1] = 10 μg/μL for profile, dose series 10^-5 to 10 mg/mL

CC1=C[C@H](O)[C@H]2C[C@@H]1C2(C)C [(S)-cis-verbenol]
single sensillum recording, Drosophila empty neuron (ab3A) [1]: PstrOR17 responded to both (−)-verbenone and (S)-cis-verbenol in a dose-dependent manner

CC1=CCC2CC1C2(C)C (stereo not drawn) [α-pinene]
single sensillum recording, Drosophila empty neuron (ab3A) (10 μg/μL): PstrOR17 also conferred moderate responses to five other odorants: α-pinene

CC1=CC(=O)[C@H]2C[C@@H]1C2(C)C [(−)-verbenone]
single sensillum recording, Drosophila empty neuron (ab3A) [1]: PstrOR17 responded to both (−)-verbenone and (S)-cis-verbenol in a dose-dependent manner

CC1=CCC(C(C)C)=CC1 [γ-terpinene]
single sensillum recording, Drosophila empty neuron (ab3A) (10 μg/μL): moderate responses to five other odorants: α-pinene; (−)-β-pinene; γ-terpinene

C=C1CC[C@H]2C[C@@H]1C2(C)C [(−)-β-pinene]
single sensillum recording, Drosophila empty neuron (ab3A) (10 μg/μL): moderate responses to five other odorants: α-pinene; (−)-β-pinene
